Data on one molecule can be found in publication PMC5218480 (PLoS ONE, 2017).

For the experiment, the system named is MV-4-11 cells. The experiment can be described thus: Gene expression microarray analysis (Affymetrix PrimeView) and GSEA. Also on record: RFU PODN (11730768_x_at) / Fold change /veh PODN (11730768_x_at) / RFU LINC00158 (11744669_a_at) / Fold change /veh LINC00158 (11744669_a_at) / RFU DUSP10 (11751237_a_at) / Fold change /veh DUSP10 (11751237_a_at) / RFU ID3 (11757404_x_at) / Fold change /veh ID3 (11757404_x_at) / RFU PLEKHG5 (11737974_s_at) / Fold change /veh PLEKHG5 (11737974_s_at) / RFU LRRC4B (11730491_at) / Fold change /veh LRRC4B (11730491_at) / RFU GIMAP4 (11747438_a_at) / Fold change /veh GIMAP4 (11747438_a_at) / RFU KRT8 (11758183_x_at) / Fold change /veh KRT8 (11758183_x_at) / RFU CNN1 (11734310_a_at) / Fold change /veh CNN1 (11734310_a_at) / RFU VPS37D (11726825_at) / Fold change /veh VPS37D (11726825_at) / RFU C10orf10 (11716522_x_at) / Fold change /veh C10orf10 (11716522_x_at) / RFU KIR2DL2 /// KIR2DL4 /// KIR2DL5A /// KIR2DL5B /// KIR2DS1 /// KIR2DS2 /// KIR2DS3 /// KIR2DS4 /// KIR3DL3 /// KIR3DL3 /// KIR3DS1 (11738374_at) / Fold change /veh KIR2DL2 /// KIR2DL4 /// KIR2DL5A /// KIR2DL5B /// KIR2DS1 /// KIR2DS2 /// KIR2DS3 /// KIR2DS4 /// KIR3DL3 /// KIR3DL3 /// KIR3DS1 (11738374_at) / RFU C1QL1 (11718748_at) / Fold change /veh C1QL1 (11718748_at) / RFU TMPRSS4 (11747572_a_at) / Fold change /veh TMPRSS4 (11747572_a_at) / RFU HAMP (11756126_x_at) / Fold change /veh HAMP (11756126_x_at) / RFU RNFT2 (11725882_a_at) / Fold change /veh RNFT2 (11725882_a_at) / RFU NR4A2 (11747474_a_at) / Fold change /veh NR4A2 (11747474_a_at) / RFU ABCC12 (11746883_a_at) / Fold change /veh ABCC12 (11746883_a_at) / RFU TMEM136 (11760407_x_at) / Fold change /veh TMEM136 (11760407_x_at) / RFU CLDN22 /// WWC2 (11732394_at) / Fold change /veh CLDN22 /// WWC2 (11732394_at) / RFU HLA-DPB1 (11760878_x_at) / Fold change /veh HLA-DPB1 (11760878_x_at) / RFU SPINT1 (11716480_a_at) / Fold change /veh SPINT1 (11716480_a_at) / RFU GAP43 (11754022_s_at) / Fold change /veh GAP43 (11754022_s_at) / RFU A4GNT (11735810_at) / Fold change /veh A4GNT (11735810_at) / RFU PRB3 (11715151_x_at) / Fold change /veh PRB3 (11715151_x_at) / RFU TUBB4B (11761932_at) / Fold change /veh TUBB4B (11761932_at) / RFU CAPN14 (11732068_a_at) / Fold change /veh CAPN14 (11732068_a_at) / RFU TMCC2 (11721928_a_at) / Fold change /veh TMCC2 (11721928_a_at) / RFU IRGQ (11745062_a_at) / Fold change /veh IRGQ (11745062_a_at) / RFU FAM174B (11720279_a_at) / Fold change /veh FAM174B (11720279_a_at) / RFU TMPRSS4 (11748680_a_at) / Fold change /veh TMPRSS4 (11748680_a_at) / RFU FAM212B (11763350_a_at) / Fold change /veh FAM212B (11763350_a_at) / RFU PLEKHG5 (11743358_a_at) / Fold change /veh PLEKHG5 (11743358_a_at) / RFU ZSCAN30 (11745921_a_at) / Fold change /veh ZSCAN30 (11745921_a_at) / RFU CMKLR1 (11741424_a_at) / Fold change /veh CMKLR1 (11741424_a_at) / RFU LOC101060620 /// MAPK8IP1 (11723275_at) / Fold change /veh LOC101060620 /// MAPK8IP1 (11723275_at) / RFU SPTSSB (11747773_x_at) / Fold change /veh SPTSSB (11747773_x_at) / RFU PRSS12 (11739890_at) / Fold change /veh PRSS12 (11739890_at) / RFU BIN1 (11741810_x_at) / Fold change /veh BIN1 (11741810_x_at) / RFU WNT11 (11732464_a_at) / Fold change /veh WNT11 (11732464_a_at) / RFU C10orf10 (11716521_a_at) / Fold change /veh C10orf10 (11716521_a_at) / RFU C5orf56 (11738089_at) / Fold change /veh C5orf56 (11738089_at) / RFU CYB561 (11721691_x_at) / Fold change /veh CYB561 (11721691_x_at) / RFU ANKRD19P (11752326_a_at) / Fold change /veh ANKRD19P (11752326_a_at) / RFU OR2T12 /// OR2T33 /// OR2T8 (11738714_s_at) / Fold change /veh OR2T12 /// OR2T33 /// OR2T8 (11738714_s_at) / RFU VCAN (11748164_a_at) / Fold change /veh VCAN (11748164_a_at) / RFU JSRP1 (11732532_at) / Fold change /veh JSRP1 (11732532_at) / RFU KRTAP10-11 (11738290_x_at) / Fold change /veh KRTAP10-11 (11738290_x_at) / RFU MYO3A (11730013_a_at) / Fold change /veh MYO3A (11730013_a_at) / RFU EBF3 (11725865_a_at) / Fold change /veh EBF3 (11725865_a_at) / RFU CAMK2N1 (11719241_x_at) / Fold change /veh CAMK2N1 (11719241_x_at) / RFU C5orf56 (11738088_a_at) / Fold change /veh C5orf56 (11738088_a_at) / RFU OLFML3 (11715873_a_at) / Fold change /veh OLFML3 (11715873_a_at) / RFU LOC100653217 /// NTM (11731650_a_at) / Fold change /veh LOC100653217 /// NTM (11731650_a_at) / RFU MAPK11 (11762145_a_at) / Fold change /veh MAPK11 (11762145_a_at) / RFU FIZ1 (11724087_x_at) / Fold change /veh FIZ1 (11724087_x_at) / RFU OASL (11726364_x_at) / Fold change /veh OASL (11726364_x_at) / RFU SOX15 (11748057_x_at) / Fold change /veh SOX15 (11748057_x_at) / RFU CD79A (11719716_a_at) / Fold change /veh CD79A (11719716_a_at) / RFU HIST1H1D (11736915_at) / Fold change /veh HIST1H1D (11736915_at) / RFU CASKIN2 (11723855_a_at) / Fold change /veh CASKIN2 (11723855_a_at) / RFU LOC730098 (11760151_x_at) / Fold change /veh LOC730098 (11760151_x_at) / RFU OR4N2 (11742367_at) / Fold change /veh OR4N2 (11742367_at) / RFU PRRT2 (11749266_a_at) / Fold change /veh PRRT2 (11749266_a_at) / RFU SNX32 (11753110_a_at) / Fold change /veh SNX32 (11753110_a_at) / RFU CDHR5 (11726645_a_at) / Fold change /veh CDHR5 (11726645_a_at) / RFU RCAN1 (11760418_a_at) / Fold change /veh RCAN1 (11760418_a_at) / RFU FAM167A (11723789_a_at) / Fold change /veh FAM167A (11723789_a_at) / RFU FAM26E (11764081_at) / Fold change /veh FAM26E (11764081_at) / RFU ISYNA1 (11749810_s_at) / Fold change /veh ISYNA1 (11749810_s_at) / RFU ACY1 (11761880_at) / Fold change /veh ACY1 (11761880_at) / RFU 11764098_at / Fold change /veh 11764098_at / RFU SAMD14 (11745864_x_at) / Fold change /veh SAMD14 (11745864_x_at) / RFU NPB (11741838_a_at) / Fold change /veh NPB (11741838_a_at) / RFU TMPRSS6 (11731388_a_at) / Fold change /veh TMPRSS6 (11731388_a_at) / RFU KRTAP10-2 (11738614_at) / Fold change /veh KRTAP10-2 (11738614_at) / RFU ARHGAP8 /// PRR5-ARHGAP8 (11727945_x_at) / Fold change /veh ARHGAP8 /// PRR5-ARHGAP8 (11727945_x_at) / RFU KRTAP5-7 /// NADSYN1 (11734609_at) / Fold change /veh KRTAP5-7 /// NADSYN1 (11734609_at) / RFU RASL12 (11751679_a_at) / Fold change /veh RASL12 (11751679_a_at) / RFU CDKN2B (11736163_a_at) / Fold change /veh CDKN2B (11736163_a_at) / RFU PRF1 (11729649_at) / Fold change /veh PRF1 (11729649_at) / RFU, ZNF638 /// ZNF638-IT1 / Fold change vs veh, ZNF638 /// ZNF638-IT1 / RFU, PANK3 / Fold change vs veh, PANK3 / RFU, SH3YL1 / Fold change vs veh, SH3YL1 / RFU, ZEB2 / Fold change vs veh, ZEB2 / RFU, NRIP1 / Fold change vs veh, NRIP1 / RFU, PTTG1IP / Fold change vs veh, PTTG1IP / RFU, CAPN2 / Fold change vs veh, CAPN2 / RFU, MED14 / Fold change vs veh, MED14 / RFU, SNORA58 / Fold change vs veh, SNORA58 / RFU, C1orf63 / Fold change vs veh, C1orf63 / RFU, LRRFIP1 / Fold change vs veh, LRRFIP1 / RFU, NDUFAF7 / Fold change vs veh, NDUFAF7 / RFU, SLC12A2 / Fold change vs veh, SLC12A2 / RFU, IBTK / Fold change vs veh, IBTK / RFU, ESF1 / Fold change vs veh, ESF1 / Fold change vs veh, TMEM50B / RFU, TAOK1 / Fold change vs veh, TAOK1 / RFU, ACBD3 / Fold change vs veh, ACBD3 / RFU, TMA16 / Fold change vs veh, TMA16 / RFU, RWDD3 / Fold change vs veh, RWDD3 / RFU, BCAT1 / Fold change vs veh, BCAT1 / RFU, EDEM3 / Fold change vs veh, EDEM3 / RFU, TMEM33 / Fold change vs veh, TMEM33 / RFU, WDR75 / Fold change vs veh, WDR75 / RFU, AHCTF1 / Fold change vs veh, AHCTF1 / RFU, TFRC / Fold change vs veh, TFRC / RFU, ZDHHC17 / Fold change vs veh, ZDHHC17 / RFU, NOM1 / Fold change vs veh, NOM1 / RFU, ARL8B / Fold change vs veh, ARL8B / RFU, ZBTB11 / Fold change vs veh, ZBTB11 / RFU, TAMM41 / Fold change vs veh, TAMM41 / RFU, KIAA1704 /// LOC100996395 / Fold change vs veh, KIAA1704 /// LOC100996395 / RFU, ING1 / Fold change vs veh, ING1 / RFU, TRMT61B / Fold change vs veh, TRMT61B / RFU, FUBP3 / Fold change vs veh, FUBP3 / RFU, TP53 / Fold change vs veh, TP53 / RFU, TNKS2 / Fold change vs veh, TNKS2 / RFU, ZFP14 / Fold change vs veh, ZFP14 / RFU, ACTR2 / Fold change vs veh, ACTR2 / RFU, PPP3R1 / Fold change vs veh, PPP3R1 / RFU, PIK3R1 / Fold change vs veh, PIK3R1 / RFU, HNRNPA1 / Fold change vs veh, HNRNPA1 / RFU, RNF170 / Fold change vs veh, RNF170 / RFU, ZNF28 / Fold change vs veh, ZNF28 / RFU, RNGTT / Fold change vs veh, RNGTT / RFU, OGT / Fold change vs veh, OGT / RFU, BRD1 / Fold change vs veh, BRD1 / RFU, MARS / Fold change vs veh, MARS / RFU, ZNF655 / Fold change vs veh, ZNF655 / RFU, FAHD1 / Fold change vs veh, FAHD1 / RFU, BDP1 / Fold change vs veh, BDP1 / RFU, LRRCC1 / Fold change vs veh, LRRCC1 / RFU, ARID1A / Fold change vs veh, ARID1A / RFU, ZNF146 / Fold change vs veh, ZNF146 / RFU, ZNF330 / Fold change vs veh, ZNF330 / RFU, GPN3 / Fold change vs veh, GPN3 / RFU, C9orf123 / Fold change vs veh, C9orf123 / RFU, N4BP2L2 / Fold change vs veh, N4BP2L2 / RFU, ARFIP1 / Fold change vs veh, ARFIP1 / RFU, FAM179B / Fold change vs veh, FAM179B / RFU, BCL10 / Fold change vs veh, BCL10 / RFU, UHRF1BP1L / Fold change vs veh, UHRF1BP1L / RFU, BET1 / Fold change vs veh, BET1 / RFU, CNOT2 / Fold change vs veh, CNOT2 / RFU, ZNF268 / Fold change vs veh, ZNF268 / Fold change vs veh, ZNF507 / RFU, DGCR2 / Fold change vs veh, DGCR2 / RFU, WDSUB1 / Fold change vs veh, WDSUB1 / Fold change vs veh, HSP90B1 /// MIR3652 / RFU, ADSS / Fold change vs veh, ADSS / RFU, GK / Fold change vs veh, GK / RFU, ZNF148 / Fold change vs veh, ZNF148 / RFU, TAF9 / Fold change vs veh, TAF9 / RFU, SLC1A5 / Fold change vs veh, SLC1A5 / RFU, SLMO2 / Fold change vs veh, SLMO2 / RFU, ABCC4 / Fold change vs veh, ABCC4 / RFU, LOC101060439 /// RAP1B / Fold change vs veh, LOC101060439 /// RAP1B / RFU, RFX7 / Fold change vs veh, RFX7 / RFU, GTPBP10 / Fold change vs veh, GTPBP10 / RFU, CNEP1R1 / Fold change vs veh, CNEP1R1 / RFU, BIVM-ERCC5 /// ERCC5 / Fold change vs veh, BIVM-ERCC5 /// ERCC5 / RFU, ILF3 / Fold change vs veh, ILF3 / RFU 11762660_at / Fold change /veh 11762660_at / RFU VCAN (11757783_s_at) / Fold change /veh VCAN (11757783_s_at) / RFU DDX43 (11728927_at) / Fold change /veh DDX43 (11728927_at) / RFU KRT8 (11758188_x_at) / Fold change /veh KRT8 (11758188_x_at) / RFU NKD1 (11759106_at) / Fold change /veh NKD1 (11759106_at) / RFU SRD5A1 (11742802_a_at) / Fold change /veh SRD5A1 (11742802_a_at) / RFU TPSAB1 /// TPSB2 (11721975_s_at) / Fold change /veh TPSAB1 /// TPSB2 (11721975_s_at) / RFU GSTM3 (11746129_a_at) / Fold change /veh GSTM3 (11746129_a_at) / RFU IL23R (11737362_x_at) / Fold change /veh IL23R (11737362_x_at) / RFU TMEM51 (11727254_a_at) / Fold change /veh TMEM51 (11727254_a_at) / RFU PIWIL2 (11732686_x_at) / Fold change /veh PIWIL2 (11732686_x_at) / RFU ORM1 (11744905_x_at) / Fold change /veh ORM1 (11744905_x_at) / RFU CCDC152 (11743942_at) / Fold change /veh CCDC152 (11743942_at) / RFU ECM1 (11717891_a_at) / Fold change /veh ECM1 (11717891_a_at) / RFU IL23R (11748794_a_at) / Fold change /veh IL23R (11748794_a_at) / RFU TNFAIP8L3 (11732012_x_at) / Fold change /veh TNFAIP8L3 (11732012_x_at) / RFU MBOAT4 (11741988_at) / Fold change /veh MBOAT4 (11741988_at) / RFU 11764193_at / Fold change /veh 11764193_at / RFU TMEM53 (11763286_at) / Fold change /veh TMEM53 (11763286_at) / RFU MAGEB2 (11727129_at) / Fold change /veh MAGEB2 (11727129_at) / RFU TMEM200A (11744735_a_at) / Fold change /veh TMEM200A (11744735_a_at) / RFU CCDC152 (11751479_a_at) / Fold change /veh CCDC152 (11751479_a_at) / RFU FAM211A (11726209_a_at) / Fold change /veh FAM211A (11726209_a_at) / RFU RGS16 (11746705_a_at) / Fold change /veh RGS16 (11746705_a_at) / RFU VCAN (11755009_s_at) / Fold change /veh VCAN (11755009_s_at) / RFU RHOB (11743442_s_at) / Fold change /veh RHOB (11743442_s_at) / RFU RGS16 (11720943_a_at) / Fold change /veh RGS16 (11720943_a_at) / RFU RGS16 (11720944_at) / Fold change /veh RGS16 (11720944_at) / RFU, VPS4B / Fold change vs veh, VPS4B / RFU, CREB1 / Fold change vs veh, CREB1 / RFU, DNAJC13 / Fold change vs veh, DNAJC13 / RFU, GNAQ / Fold change vs veh, GNAQ / RFU, CDK5R1 / Fold change vs veh, CDK5R1 / RFU, ZRANB3 / Fold change vs veh, ZRANB3 / RFU, CUL4A / Fold change vs veh, CUL4A / RFU, CCNY / Fold change vs veh, CCNY / RFU, UFL1 / Fold change vs veh, UFL1 / RFU, COG3 / Fold change vs veh, COG3 / RFU, DIAPH2 / Fold change vs veh, DIAPH2 / RFU, SKA2 / Fold change vs veh, SKA2 / RFU, AFF3 / Fold change vs veh, AFF3 / RFU, LMF1 / Fold change vs veh, LMF1 / RFU, IPO11 / Fold change vs veh, IPO11 / RFU, DFFB / Fold change vs veh, DFFB / RFU, FOXP1 / Fold change vs veh, FOXP1 / RFU, CARD8 / Fold change vs veh, CARD8 / RFU, STRN3 / Fold change vs veh, STRN3 / RFU, ADK / Fold change vs veh, ADK / RFU, RASSF2 / Fold change vs veh, RASSF2 / RFU, WIPF1 / Fold change vs veh, WIPF1 / RFU, LARP1B / Fold change vs veh, LARP1B / RFU, RASA1 / Fold change vs veh, RASA1 / RFU, RB1 / Fold change vs veh, RB1 / RFU, PPFIA1 / Fold change vs veh, PPFIA1 / RFU, MAT2A / Fold change vs veh, MAT2A / RFU, CCT5 / Fold change vs veh, CCT5 / RFU, WDR92 / Fold change vs veh, WDR92 / RFU, CUX1 / Fold change vs veh, CUX1 / RFU, TTC7A / Fold change vs veh, TTC7A / RFU, TMEM135 / Fold change vs veh, TMEM135 / RFU, DEPTOR / Fold change vs veh, DEPTOR / RFU, CPM / Fold change vs veh, CPM / RFU, DNAJB6 / Fold change vs veh, DNAJB6 / RFU, CACNA2D3 / Fold change vs veh, CACNA2D3 / RFU, DTX4 / Fold change vs veh, DTX4 / RFU, TFCP2 / Fold change vs veh, TFCP2 / RFU, GMCL1 /// GMCL1P1 / Fold change vs veh, GMCL1 /// GMCL1P1 / RFU, AEBP2 / Fold change vs veh, AEBP2 / RFU, SNHG1 /// SNORD22 /// SNORD25 /// SNORD26 /// SNORD27 /// SNORD28 /// SNORD29 /// SNORD31 / Fold change vs veh, SNHG1 /// SNORD22 /// SNORD25 /// SNORD26 /// SNORD27 /// SNORD28 /// SNORD29 /// SNORD31 / Fold change (Aza/veh), C12orf56 (ProbeSet 11735607_a_at) / Fold change (ACY-1035/veh), C12orf56 (ProbeSet 11735607_a_at) / Fold change (Aza/veh), FGFR1OP (ProbeSet 11751329_s_at) / Fold change (ACY-1035/veh), FGFR1OP (ProbeSet 11751329_s_at) / Fold change (Aza/veh), VPS36 (ProbeSet 11739960_a_at) / Fold change (ACY-1035/veh), VPS36 (ProbeSet 11739960_a_at) / RFU SYPL1 (11715823_x_at) / Fold change /veh SYPL1 (11715823_x_at) / RFU IGFBP7 (11715501_s_at) / Fold change /veh IGFBP7 (11715501_s_at) / RFU REEP3 (11722064_at) / Fold change /veh REEP3 (11722064_at) / RFU IGLL1 (11728026_x_at) / Fold change /veh IGLL1 (11728026_x_at): dose or concentration left out as unconfirmed. The settings on record: ProbeSet 11723930_at; LIST D. The format is cell-based, human.

Turning to `Nc1ncn([C@@H]2O[C@H](CO)[C@@H](O)[C@H]2O)c(=O)n1` [azacitidine], the “Fold change vs veh, CCT5” value was 0.69.
